According to ChEMBL document CHEMBL2407041, “Identification of potent Yes1 kinase inhibitors using a library screening approach” (Bioorg Med Chem Lett, 2013):

Assays:
[1] = Antiproliferative activity against human Rh30 cells after 48 hrs by CellTiter-Glo luminescent assay; conditions: SJRH30, 48 h
RD = assay: Antiproliferative activity against human RD cells after 48 hrs by CellTiter-Glo luminescent assay
[2] = biological target: T1, Tyrosine-protein kinase Yes (Homo sapiens, UniProt P07947); assay: Inhibition of Yes1 (unknown origin) by [gamma-33P]-ATP radiolabeled enzyme activity assay
[3] = biological target: T1, Tyrosine-protein kinase Yes; assay: Inhibition of Yes1 (unknown origin) assessed as kinase-dependent enzymatic production of ADP from ATP using coupled luminescence-based reaction by ADP-Glo kinase assay

T1 sequence (P07947 whole entry): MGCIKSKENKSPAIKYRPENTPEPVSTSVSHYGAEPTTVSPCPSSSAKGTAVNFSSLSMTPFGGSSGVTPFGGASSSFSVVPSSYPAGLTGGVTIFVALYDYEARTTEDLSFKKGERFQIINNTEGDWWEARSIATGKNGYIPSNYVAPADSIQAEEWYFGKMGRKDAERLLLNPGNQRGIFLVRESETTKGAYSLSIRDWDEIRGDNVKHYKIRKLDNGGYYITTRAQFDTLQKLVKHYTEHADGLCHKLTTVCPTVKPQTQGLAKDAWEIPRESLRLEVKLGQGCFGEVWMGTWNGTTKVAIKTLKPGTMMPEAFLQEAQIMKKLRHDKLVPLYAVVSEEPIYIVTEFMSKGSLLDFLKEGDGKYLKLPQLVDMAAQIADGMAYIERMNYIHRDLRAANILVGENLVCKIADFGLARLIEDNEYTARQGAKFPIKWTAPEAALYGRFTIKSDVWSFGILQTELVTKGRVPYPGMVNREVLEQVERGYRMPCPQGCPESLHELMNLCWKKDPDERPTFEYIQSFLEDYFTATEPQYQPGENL

IC50 [2] | IC50 [3] | Structure (SMILES) | IC50 [1] | IC50 (RD)
3 nM | 39.1 nM | CC(C)Oc1cc(Nc2nc(N[C@@H](C)c3ccc(F)cn3)ncc2Cl)n[nH]1 | 1800 nM | 5.3 µM
240 nM | 2670 nM | CN1CCC(CNc2ccc3ncc(-c4cccc(OC(F)(F)F)c4)n3n2)CC1 [SGI-1776] | – | –

Structure (SMILES) | IC50 [2] | IC50 [3] | IC50 [1] | IC50 (RD)
c1cc(-c2cnn3cc(-c4ccc(OCCN5CCCCC5)cc4)cnc23)ccn1 [DORSOMORPHIN] | 29.8 nM | 196 nM | – | –
